Reference: US20240139195A1, “METHODS OF TREATING CHRONIC ACTIVE ANTIBODY-MEDIATED REJECTION USING BTK INHIBITORS” (BeiGene Switzerland GmbH, priority 2021, published 2024)
Entries after “also recorded” stand apart in the source; their conditions may differ.

What was measured:
[1] = Long-term survival of allogeneic kidney transplant recipients; assay type: in vivo, Lewis rats; details: right kidney resected 10 days after transplantation, vs vehicle, log-rank P<0.05
Excerpt: (§1) After the resection of right kidney, the blood concentration of creatinine and urea nitrogen continued to deteriorate and reach the summit at 12 weeks after transplantation.

[2] = system: T cells, B cells and plasma cells in peripheral blood; assay: Flow cytometry of T cells, B cells and plasma cells in rat peripheral blood; assay type: in vivo; details: 8 weeks after kidney transplantation
Procedure: PBMCs were doubly incubated with FITC-conjugated anti-CD45R (2.5 μg/10^6 cells; eBioscience, Thermo Fisher Scientific, USA) and APC-conjugated anti-CD19 (2 μg/10^6 cells; Bioss, China), FITC-conjugated anti-CD45R (2.5 μg/10^6 cells; eBioscience, Thermo Fisher Scientific, USA) and Alexa Fluor 647 (conjugated anti-CD138 (0.1 μg/10^6 cells; Abcam, USA), APC-conjugated anti-CD3 (3 μg/10^6 cells; BioLegend, USA) and FITC-conjugated anti-CD4 (0.5 μg/10^6 cells; BioLegend, USA) as well as APC-conjugated anti-CD3 (3 μg/10^6 cells; BioLegend, USA) and Percp-eFluor710-conjugated anti-CD8 (0.3 μg/10^6 cells; BioLegend, USA), respectively. The percentages of CD45R^+CD19^+B cells, CD45R^−CD138^+ plasma cells, and CD3^+CD4^+ and CD3^+CD8^+ T cells were determined by flow cytometry (BD Accuri C6, BD Biosciences).
In order to investigate the immune state of syngenetic and allogenic rats, flow cytometry was used to test the amounts of T cells, B cells, and plasma cells.

[3] = system: T cells, B cells, plasma cells and macrophages in allograft kidneys; details: 12 weeks after transplantation
Procedure: Recipients with phosphate buffered saline alone were considered as the vehicle control. At 4, 8, 12 and 16 weeks, organs were harvested and divided into two parts, which were fixed in paraffin or snap-frozen in N2 and stored at −80° C. Peripheral blood mononuclear cells (PBMCs) were separated from the rat peripheral blood to be used in flow cytometry.
Paraffin-embedded sections (4 m) were incubated with primary antibodies against anti-phospho-BTK (1:100; Santa Cruz, USA), C4d (1:200, BioLegend, USA) CD3 (1:200, BioLegend, USA), CD4 (1:200, BioLegend, USA), CD8 (1:200, BioLegend, USA), CD19 (1:200, Bioss, China), CD138 (1:100, Abcam) and CD68 (1:100, Abcam) overnight at 4° C. in a humidified chamber. The appropriate isotype-matched IgG was used as the negative control. […] Quantitative analysis of positive cells (T cells, B cells, plasma cell and macrophages) and IgG positive area was analyzed by using Image-Pro Plus (Media Cybernetics, Rockville, MD). Quantitative analysis of C4d positive PTC was performed according to outcomes of two independent pathologists blinded to the experimental design.

[4] = system: donor specific alloantibody (DSA); assay: Donor specific alloantibody (DSA) analysis by flow cytometry; assay type: in vivo, Lewis rats; details: allogeneic recipients, vs vehicle
Procedure: (§2) Left kidney transplantation was performed between male F344 and Lewis rats [Vogelbacher R, et al. Nephrology, dialysis, transplantation: official publication of the European Dialysis and Transplant Association—European Renal Association. 2010; 25: 3764-73.]. The average time of cold ischemia time and warm ischemia time was 25 and 40 minutes, respectively. In order to allow the production of alloantibodies, no immunosuppressive agents were used within the first 2 weeks after kidney transplantation.
Spleen lymphocytes of normal F344 rats were extracted using lymphocyte separation medium. Serum samples of allogeneic rats were incubated with spleen lymphocytes at room temperature for 30 minutes. Spleen lymphocytes were washed for three times and then incubated with a fluorescein isothiocyanate (FITC)-labeled anti-rat IgG antibody (BD Biosciences) at room temperature for 30 min. Mean fluorescence intensity (MFI) was determined in order to assess DSA levels by flow cytometry (Beckman DxFLEX, Beckman, Brea, CA) [Zhao D, et al. American journal of transplantation: official journal of the American Society of Transplantation and the American Society of Transplant Surgeons. 2018; 18: 1083-95; Liao T, et al. Frontiers in immunology. […]

[5] = system: TNF-α, TGF-β, IL-17A, IL-35, IL-10; assay: ELISA of rat serum cytokines; assay type: in vivo; details: 12 weeks after kidney transplantation, allogeneic recipients vs vehicle
Procedure: The levels of rat serum TNF-α, TGF-β, IL-17A, IL-35, IL-10 were quantified by rat TNF-α ELISA kit (MUTISCIENCES; China), rat TGF-β ELISA kit (MUTISCIENCES; China), rat IL-35 ELISA kit (MUTISCIENCES; China), rat IL-17A ELISA kit (MUTISCIENCES; China) and rat IL-10 ELISA kit (MUTISCIENCES; China), respectively. The assays were performed as described in the manufacturer's instructions.
At 12 weeks after kidney transplantation, serum isolated from rat peripheral blood was used to detect the concentration of inflammatory cytokines.

[6] = Renal function assessment (blood creatinine and urea nitrogen) after resection of native right kidney; assay type: in vivo, Lewis rats; details: allogeneic recipients, right kidney resected 10 days after transplantation, vs vehicle
Procedure: Concentrations of rat blood creatinine and urea nitrogen were tested by instructions of manufacturer of the kits (JianCheng, China).
as §1

renal allografts = assay: Histological examination of renal allografts (H&E, PAS, Masson staining) for severity of CAMR; assay type: in vivo, Lewis rats
Procedure: Left kidney transplantation was performed between male F344 and Lewis rats [Vogelbacher R, et al. Nephrology, dialysis, transplantation: official publication of the European Dialysis and Transplant Association—European Renal Association. 2010; 25: 3764-73.]. […] In order to allow the production of alloantibodies, no immunosuppressive agents were used within the first 2 weeks after kidney transplantation. […] Histological analysis was performed by using H&E, PAS and Masson staining. H&E, PAS and Masson trichome staining were performed as detailed elsewhere[Wang Z, et al. Journal of cellular and molecular medicine. 2017; 21: 2359-69.], which was used to evaluate the severity of CAMR. The diagnostic criteria of CAMR was according to Banff 2017 criteria. Characteristics of CAMR were defined as arterial intimal fibrosis, positive C4d staining in PTC and DSA. Measurement of arteriosclerosis caused by intimal fibrosis was performed for the areas surrounded by the luminal surface and internal elastic lamina of each vessel. The area determined by the internal elastic lamina subtraction of the internal elastic lamina to the luminal area was considered as the intimal area. Quantitative analysis the morphometric change of the kidney sections was performed according to results of two pathologists blinded to the experimental design independently.

[7] = system: C4d and IgG deposition in allograft kidney; assay: Immunofluorescence staining of C4d and IgG deposition in allograft kidney; assay type: in vivo, Lewis rats; details: 2 mg/kg
Procedure: as §2

[8] = after treatment for 10 weeks, 2 mg/kg, vs allograft kidneys

**Q.** Which “survival rate of allogeneic recipients” value [1] does the source give for `C=CC(=O)N1CCC([C@@H]2CCNc3c(C(N)=O)c(-c4ccc(Oc5ccccc5)cc4)nn32)CC1` [Compound 1, (S)-7-(1-acryloylpiperidin-4-yl)-2-(4-phenoxyphenyl)-4,5,6,7-tetrahydropyrazolo-[1,5-a]pyrimidine-3-carboxamide] here?
**A.** Its value is “significantly increased; also recorded: higher”.

**Q.** And the “effect on T cells (CD3+CD4+, CD3+CD8+) in peripheral blood” value ([2]; 2 mg/kg)?
**A.** Its value is “sight effect; also recorded: slight effects”.

**Q.** And the “elevation of CD19+CD45R+ B cells in peripheral blood” value ([2]; 2 mg/kg for 6 weeks)?
**A.** Its value is “significantly inhibited increases; also recorded: significantly suppressed”.

**Q.** What about the “elevation of plasma cells in peripheral blood” value ([2]; 2 mg/kg for 6 weeks) of the same compound?
**A.** The value was “significantly inhibited increases; also recorded: significantly suppressed”.

**Q.** What about the “infiltration of B cells in allograft kidney” value [3] of the same compound?
**A.** Its value is “remarkably reduced; also recorded: significantly reduced”.

**Q.** What about the “infiltration of T cells in allograft kidney” value [3] of the same compound?
**A.** The value was “remarkably reduced; also recorded: significantly reduced”.

**Q.** And the “infiltration of macrophages in allograft kidney” value [3]?
**A.** The value was “remarkably reduced; also recorded: decrease”.

**Q.** And the “infiltration of plasma cells in allograft kidney” value [3]?
**A.** The value was “significantly reduced”.

**Q.** And the “production of DSA” value ([4]; treatment from second week after transplantation, 8, 12, 16 weeks)?
**A.** The value was “significantly reduced; also recorded: prevented further production”.

**Q.** What about the “level of DSA” value ([4]; until end of treatment at 16 weeks) of the same compound?
**A.** Its value is “relatively low level”.

**Q.** And the “secretion of IL-10 (serum)” value [5]?
**A.** The value was “further increased”.

**Q.** What about the “secretion of IL-35 (serum)” value [5] of the same compound?
**A.** Its value is “further increased”.

**Q.** And the “secretion of TGF-β (serum)” value [5]?
**A.** Its value is “further increased”.

**Q.** What about the “serum level of IL-17A” value [5] of the same compound?
**A.** The value was “reduce; also recorded: effectively decreased”.

**Q.** And the “serum level of TNF-α” value [5]?
**A.** The value was “reduce; also recorded: effectively decreased”.

**Q.** And the blood creatinine [6]?
**A.** Its blood creatinine is “remarkably inhibited the increases; also recorded: relatively low levels”.

**Q.** What about the blood urea nitrogen [6] of the same compound?
**A.** The blood urea nitrogen was “remarkably inhibited the increases; also recorded: relatively low levels”.

**Q.** What about the “lesion area of interstitial fibrosis (PAS and Masson staining)” value (renal allografts; [8]) of the same compound?
**A.** The value was “significantly ameliorated”.

**Q.** And the “lesion area of tubular atrophy (PAS and Masson staining)” value (renal allografts; [8])?
**A.** Its value is “significantly ameliorated”.

**Q.** And the “glomerular sclerosis (H&E staining)” value (renal allografts; allogeneic recipients, 2 mg/kg, vs vehicle)?
**A.** The value was “significantly ameliorated”.

**Q.** And the “CAMR (fibrous intimal thickening in arteries, C4d deposition in PTC, increase of DSA)” value (renal allografts; allograft kidney, treatment from second week after transplantation)?
**A.** The value was “significantly alleviated”.

**Q.** What about the “deposition of C4d in peritubular capillaries (PTC)” value ([7]; allograft kidney) of the same compound?
**A.** The value was “dramatically reduced”.

**Q.** And the “positive (lesion) area of IgG” value ([7]; allograft kidneys after treatment, almost 30% without treatment)?
**A.** Its value is “less than 10%”.
